Assay: xn = mol fraction of the nth substance listed
Settings: 92.3 kPa, Liquid; for viscosity: Concentric cylinders viscometry; for speed of sound: Frequency=3 MHz, Single path-length method; for mass density: Vibrating tube method

OCCO [1,2-ethanediol] + O
Settings | mass density, 293.15 K [kg/m3] | mass density, 298.15 K [kg/m3] | speed of sound, 293.15 K [m/s] | speed of sound, 298.15 K [m/s] | viscosity, 293.15 K [mPa·s] | viscosity, 298.15 K [mPa·s]
x1 = 0.0101 | 1002.83 | 1001.54 | 1498.9 | 1511.9 | – | –
x1 = 0.0201 | 1006.96 | 1005.57 | 1514.6 | 1526.3 | – | –
x1 = 0.0302 | 1011.02 | 1009.56 | 1529.7 | 1540.2 | – | –
x1 = 0.0407 | 1015.07 | 1013.5 | 1544.6 | 1553.8 | – | –
x1 = 0.0494 | 1018.4 | 1016.76 | – | – | 1.541 | 1.253
x1 = 0.0506 | 1018.75 | 1017.08 | 1558.1 | 1566.2 | – | –
x1 = 0.0605 | 1022.31 | 1020.55 | 1570.8 | 1577.9 | – | –
x1 = 0.0704 | 1025.78 | 1023.96 | 1583.2 | 1589.2 | – | –
x1 = 0.0801 | 1029.04 | 1027.15 | 1594 | 1599 | – | –
x1 = 0.0905 | 1032.34 | 1030.37 | 1605.6 | 1609.6 | – | –
x1 = 0.0986 | 1034.8 | 1032.78 | – | – | 2.078 | 1.68
x1 = 0.0997 | 1035.3 | 1033.24 | 1614.8 | 1618 | – | –
x1 = 0.1483 | 1048.46 | 1046.12 | – | – | 2.699 | 2.167
x1 = 0.1493 | 1048.74 | 1046.4 | 1656.2 | 1655.5 | – | –
x1 = 0.1985 | 1059.45 | 1056.96 | 1684.5 | 1681 | – | –
x1 = 0.2072 | 1061.51 | 1058.86 | – | – | 3.517 | 2.811
x1 = 0.2466 | 1068.68 | 1065.86 | – | – | 4.104 | 3.276
x1 = 0.2487 | 1069.2 | 1066.32 | 1702.1 | 1696.5 | – | –
x1 = 0.298 | 1076.5 | 1073.51 | – | – | 4.94 | 3.936
x1 = 0.2998 | 1076.8 | 1073.79 | 1712.9 | 1705.8 | – | –
x1 = 0.3318 | 1080.9 | 1077.77 | 1716.6 | 1708.7 | – | –
x1 = 0.3399 | 1081.8 | 1078.69 | – | – | 5.663 | 4.507
x1 = 0.3921 | 1087.31 | 1084.09 | – | – | 6.621 | 5.261
x1 = 0.3981 | 1087.84 | 1084.61 | 1719.4 | 1710.4 | – | –
x1 = 0.4446 | 1091.88 | – | – | – | 7.638 | 6.062
x1 = 0.4521 | 1092.39 | – | 1718.6 | 1708.8 | – | –
x1 = 0.4934 | 1095.4 | 1092.05 | 1716.1 | 1705.9 | – | –
x1 = 0.5007 | – | 1092.56 | – | – | 8.782 | 6.959
x1 = 0.5485 | 1098.81 | 1095.42 | – | – | 9.81 | 7.764
x1 = 0.552 | 1099 | – | 1711.5 | 1700.9 | – | –
x1 = 0.5846 | 1100.79 | 1097.38 | 1708.3 | 1697.6 | – | –
x1 = 0.6004 | 1101.51 | 1098.09 | – | – | 10.95 | 8.662
x1 = 0.6451 | 1103.53 | 1100.1 | – | – | 11.97 | 9.461
x1 = 0.6481 | 1103.65 | 1100.22 | 1702.1 | 1691 | – | –
x1 = 0.6773 | 1104.88 | 1101.43 | 1699 | 1687.8 | – | –
x1 = 0.7012 | 1105.75 | 1102.3 | – | – | 13.33 | 10.55
x1 = 0.7421 | 1107.16 | 1103.69 | 1692.2 | 1680.8 | – | –
x1 = 0.7435 | 1107.22 | 1103.76 | – | – | 14.35 | 11.32
x1 = 0.7811 | 1108.41 | 1104.94 | 1688 | 1676.5 | – | –
x1 = 0.7907 | 1108.69 | 1105.22 | – | – | 15.51 | 12.24
x1 = 0.8497 | – | 1106.83 | 1681 | 1669.3 | – | –
x1 = 0.8505 | – | 1106.84 | – | – | 16.94 | 13.35
x1 = 0.89 | 1111.29 | 1107.8 | – | – | 17.91 | 14.12
x1 = 0.9002 | 1111.55 | 1108.06 | 1676 | 1664.3 | – | –
x1 = 0.9059 | 1111.66 | 1108.17 | 1675.5 | 1663.8 | – | –
x1 = 0.912 | 1111.78 | 1108.29 | 1675 | 1663.3 | – | –
x1 = 0.9299 | 1112.18 | 1108.69 | 1673.3 | 1661.5 | – | –
x1 = 0.9413 | 1112.43 | 1108.94 | 1672.2 | 1660.4 | – | –
x1 = 0.9495 | 1112.62 | 1109.13 | 1671.4 | 1659.6 | – | –
x1 = 0.9532 | 1112.69 | 1109.19 | – | – | 19.48 | 15.35
x1 = 0.9546 | 1112.73 | 1109.23 | 1671 | 1659.2 | – | –
x1 = 0.9681 | 1112.99 | 1109.49 | 1669.9 | 1658.1 | – | –
x1 = 0.9789 | 1113.19 | – | 1669 | 1657.2 | – | –
x1 = 0.9893 | 1113.4 | – | 1667.9 | 1656.1 | – | –
x1 = 1 | 1113.72 | – | 1666.5 | 1654.7 | 20.61 | 16.22
